SMILES strings stand for the structures. pIC50: −log10 of the molar value. Some results are limits rather than exact numbers.

For one series, the target named is KDR (Homo sapiens, UniProt P35968). The series can be described thus: Kinase assay (33P-ATP filter-binding), KDR. Type of series: biochemical. The conditions noted are these: read-out: Kinase Selectivity KDR. As to the method: (§1) The kinase assays were carried out briefly as follows. Substrate was prepared in Base Reaction Buffer (20 mM Hepes (pH 7.5), 10 mM MgCl2, 1 mM EGTA, 0.02% Brij35, 0.02 mg/ml BSA, 0.1 mM Na3VO4, 2 mM DTT, 1% DMSO). The indicated kinases was delivered into the substrate solution and allowed to gently mix. Next, the specific compound was delivered in DMSO into the kinase mixture by Acoustic technology (Echo550; nanoliter range), and allowed to incubate for 20 minutes at room temperature. Next, ^33P-ATP was delivered into the reaction mixture to initiate the reaction and allowed to incubate at room temperature. After 2 hours, the reactions were spotted onto P81 ion exchange paper and the kinase activity is detected by the filter-binding method.

Another series deals with T1, BMPR2 (Homo sapiens, UniProt Q13873).
T1 sequence (Q13873 27-1038): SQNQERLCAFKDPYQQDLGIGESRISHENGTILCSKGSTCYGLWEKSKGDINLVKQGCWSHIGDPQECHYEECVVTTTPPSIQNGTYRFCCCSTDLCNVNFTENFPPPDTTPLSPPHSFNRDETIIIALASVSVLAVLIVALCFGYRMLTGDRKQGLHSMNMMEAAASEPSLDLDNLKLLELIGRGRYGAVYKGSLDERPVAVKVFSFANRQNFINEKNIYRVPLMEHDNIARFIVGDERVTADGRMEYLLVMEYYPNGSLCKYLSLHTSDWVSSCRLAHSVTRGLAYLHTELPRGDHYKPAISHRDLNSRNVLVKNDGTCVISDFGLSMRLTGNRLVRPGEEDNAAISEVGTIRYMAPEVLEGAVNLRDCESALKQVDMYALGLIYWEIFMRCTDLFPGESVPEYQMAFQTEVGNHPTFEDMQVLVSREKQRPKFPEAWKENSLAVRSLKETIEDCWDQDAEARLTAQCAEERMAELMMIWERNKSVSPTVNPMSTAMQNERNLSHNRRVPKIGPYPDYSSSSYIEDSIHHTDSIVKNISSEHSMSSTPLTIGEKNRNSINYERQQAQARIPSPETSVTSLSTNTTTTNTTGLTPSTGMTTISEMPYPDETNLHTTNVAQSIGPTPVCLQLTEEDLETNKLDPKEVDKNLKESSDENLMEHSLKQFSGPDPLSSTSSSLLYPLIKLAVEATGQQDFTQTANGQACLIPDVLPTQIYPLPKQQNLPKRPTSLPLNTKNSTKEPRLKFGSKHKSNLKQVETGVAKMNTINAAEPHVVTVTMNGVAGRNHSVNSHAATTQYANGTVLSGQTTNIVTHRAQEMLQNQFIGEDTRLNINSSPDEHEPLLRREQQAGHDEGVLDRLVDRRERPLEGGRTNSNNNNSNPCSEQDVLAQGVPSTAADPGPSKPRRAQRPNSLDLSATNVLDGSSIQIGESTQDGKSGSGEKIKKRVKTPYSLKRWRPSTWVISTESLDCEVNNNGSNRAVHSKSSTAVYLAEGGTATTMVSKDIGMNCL
The series can be described thus: Kinase assay (33P-ATP filter-binding), BMPR2. Type of series: biochemical. Particulars: read-out: Kinase Selectivity BMPR2. As to the method:
as §1

The next series has as its target TGFbR2 (Homo sapiens, UniProt P37173). The series can be described thus: Kinase assay (33P-ATP filter-binding), TGFbR2. The format is biochemical. The conditions noted are these: read-out: Kinase Selectivity TGFbR2. On the procedure: as §1
A further series addresses T2, ALK4 (Homo sapiens, UniProt P36896).
T2 sequence (P36896 24-505): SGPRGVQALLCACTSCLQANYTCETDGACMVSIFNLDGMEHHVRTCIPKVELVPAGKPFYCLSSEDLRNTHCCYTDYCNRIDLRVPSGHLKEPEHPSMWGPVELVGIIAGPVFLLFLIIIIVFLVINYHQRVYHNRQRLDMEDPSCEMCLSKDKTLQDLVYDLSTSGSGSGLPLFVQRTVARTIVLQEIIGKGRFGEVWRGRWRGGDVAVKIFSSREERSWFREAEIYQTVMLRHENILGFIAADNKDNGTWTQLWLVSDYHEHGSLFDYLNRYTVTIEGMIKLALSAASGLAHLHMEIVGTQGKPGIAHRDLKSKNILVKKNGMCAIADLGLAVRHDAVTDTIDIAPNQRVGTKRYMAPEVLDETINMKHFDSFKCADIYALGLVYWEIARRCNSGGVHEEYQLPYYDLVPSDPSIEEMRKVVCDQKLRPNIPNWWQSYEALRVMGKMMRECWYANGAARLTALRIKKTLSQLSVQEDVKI
The series can be described thus: Kinase assay (33P-ATP filter-binding), ALK4. The conditions noted are these: read-out: Kinase Selectivity ALK4. Type of series: biochemical. As to the method:
as §1

A further series has as its target PDGFRb (Homo sapiens, UniProt P09619). The series can be described thus: Kinase assay (33P-ATP filter-binding), PDGFRb. The conditions noted are these: read-out: Kinase Selectivity PDGFRb. The format is biochemical. As to the method: as §1
Another series concerns the target ALK1/ACVRL1 (Homo sapiens, UniProt P37023). The series can be described thus: Kinase assay (33P-ATP filter-binding), ALK1. The format is biochemical. Particulars: read-out: Kinase Selectivity ALK1/ACVRL1. On the procedure:
as §1

The next series concerns the target ALK6 (Homo sapiens, UniProt O00238). The series can be described thus: Kinase assay (33P-ATP filter-binding), ALK6. Type of series: biochemical. Particulars: read-out: Kinase Selectivity ALK6. As to the method:
as §1

In the next series the target is ALK3/BMPR1A (Homo sapiens, UniProt P36894). The series can be described thus: Kinase assay (33P-ATP filter-binding), ALK3. Type of series: biochemical. Particulars: 1 mM; read-out: Kinase Selectivity ALK3/BMPR1A (1 mM). As to the method:
as §1

Series [1] can be described thus: Intrinsic clearance, human. The format is in vitro ADME. The conditions noted are these: for CLint scaled: human.
Another series addresses T3, ALK5 (Homo sapiens, UniProt P36897).
T3 sequence (P36897 34-503): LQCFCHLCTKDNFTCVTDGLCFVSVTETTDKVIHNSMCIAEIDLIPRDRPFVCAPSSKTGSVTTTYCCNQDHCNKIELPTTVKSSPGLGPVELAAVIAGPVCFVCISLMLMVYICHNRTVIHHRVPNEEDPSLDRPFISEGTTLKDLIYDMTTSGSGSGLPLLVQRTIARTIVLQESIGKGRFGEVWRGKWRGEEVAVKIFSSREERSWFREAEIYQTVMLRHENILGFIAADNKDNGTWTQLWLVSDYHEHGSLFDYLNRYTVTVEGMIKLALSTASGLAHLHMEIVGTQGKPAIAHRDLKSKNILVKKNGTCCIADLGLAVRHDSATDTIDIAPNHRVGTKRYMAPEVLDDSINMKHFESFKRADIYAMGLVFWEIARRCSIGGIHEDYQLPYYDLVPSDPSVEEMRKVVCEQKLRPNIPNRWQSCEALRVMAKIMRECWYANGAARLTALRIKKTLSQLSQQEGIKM
The series can be described thus: Kinase assay (33P-ATP filter-binding), ALK5. Type of series: biochemical. The conditions noted are these: read-out: Kinase Selectivity ALK5. On the procedure:
as §1

A further series can be described thus: Protein binding, mouse. The format is in vitro ADME.
A short description of series [2]: Intrinsic clearance, mouse. The format is in vitro ADME. The conditions noted are these: for CLint scaled: mouse.
Series [3] concerns BMP-responsive C2C12 mouse myoblast cells stimulated with BMP4. The series can be described thus: BMP4 cell assay (Id1 promoter-firefly luciferase reporter). The format is cell-based. The conditions noted are these: BMP4 50 ng/mL, overnight. On the procedure: The BMP4 cell assay were carried out briefly as follows. Stably transfected BMP-responsive C2C12 mouse myoblast cells (containing the Idl promoter-firefly luciferase reporter) were seeded in 96-well plates and incubated overnight with the compounds and BMP4 (50 ng/mL). The cells were then lysed, and cell extracts were then subjected to the firefly luciferase assay using Steady-Glo luciferase assay kit (Promega). The results were normalized to cell titers, as measured using Cell Titer-Glo luminescence assay (Promega). […] Relative activity was quantified by the ratio of firefly to Renilla luciferase activities using the dual luciferase assay kit (Promega).

The next series can be described thus: Protein binding, human. Type of series: in vitro ADME.
The mark [4] stands for this setting: CL-Hep, value in parentheses, read-out: Intrinsic Clearance Human (CL-Hep).

Chain of ALK6 (O00238 14-502): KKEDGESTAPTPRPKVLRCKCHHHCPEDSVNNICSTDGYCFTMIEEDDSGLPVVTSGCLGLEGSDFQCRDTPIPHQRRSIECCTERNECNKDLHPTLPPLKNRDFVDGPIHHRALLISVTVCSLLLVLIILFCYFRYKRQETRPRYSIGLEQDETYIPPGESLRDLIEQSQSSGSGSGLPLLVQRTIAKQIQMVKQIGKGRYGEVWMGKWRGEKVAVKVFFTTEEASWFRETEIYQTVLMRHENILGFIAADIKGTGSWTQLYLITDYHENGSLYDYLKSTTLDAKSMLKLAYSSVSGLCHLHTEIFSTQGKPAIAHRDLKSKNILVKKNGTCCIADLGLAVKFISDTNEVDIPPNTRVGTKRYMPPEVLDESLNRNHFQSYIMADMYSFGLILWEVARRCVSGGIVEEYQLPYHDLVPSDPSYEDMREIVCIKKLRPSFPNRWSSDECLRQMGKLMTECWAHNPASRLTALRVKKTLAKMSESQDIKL
Chain of ALK1/ACVRL1 (P37023 22-503): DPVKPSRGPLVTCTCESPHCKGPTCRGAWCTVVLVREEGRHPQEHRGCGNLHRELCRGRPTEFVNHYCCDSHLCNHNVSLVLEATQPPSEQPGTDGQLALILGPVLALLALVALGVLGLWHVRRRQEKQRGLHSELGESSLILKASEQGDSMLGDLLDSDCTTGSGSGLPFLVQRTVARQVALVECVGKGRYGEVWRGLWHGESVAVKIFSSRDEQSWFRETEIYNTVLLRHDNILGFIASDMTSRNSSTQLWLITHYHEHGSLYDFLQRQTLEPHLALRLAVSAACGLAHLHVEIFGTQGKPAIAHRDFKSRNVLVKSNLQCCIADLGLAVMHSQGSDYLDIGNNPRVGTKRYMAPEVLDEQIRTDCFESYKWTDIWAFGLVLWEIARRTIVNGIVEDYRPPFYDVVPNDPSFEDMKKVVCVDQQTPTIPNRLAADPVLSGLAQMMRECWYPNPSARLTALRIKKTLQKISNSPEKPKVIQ
Chain of TGFbR2 (P37173 23-567, species assumed): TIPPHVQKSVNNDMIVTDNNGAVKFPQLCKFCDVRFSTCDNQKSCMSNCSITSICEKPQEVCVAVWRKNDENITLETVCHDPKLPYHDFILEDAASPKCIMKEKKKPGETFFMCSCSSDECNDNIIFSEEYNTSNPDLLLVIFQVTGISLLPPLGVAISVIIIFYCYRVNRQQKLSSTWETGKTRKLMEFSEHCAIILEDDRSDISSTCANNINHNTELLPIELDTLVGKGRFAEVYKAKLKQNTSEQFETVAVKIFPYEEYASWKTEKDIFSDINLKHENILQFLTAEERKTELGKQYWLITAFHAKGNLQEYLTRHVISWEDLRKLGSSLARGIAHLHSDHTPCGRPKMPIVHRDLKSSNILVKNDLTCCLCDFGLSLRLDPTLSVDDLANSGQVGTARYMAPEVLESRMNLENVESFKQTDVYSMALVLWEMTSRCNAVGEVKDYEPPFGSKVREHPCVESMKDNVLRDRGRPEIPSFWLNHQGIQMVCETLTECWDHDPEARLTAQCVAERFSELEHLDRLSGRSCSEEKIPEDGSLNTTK
Chain of PDGFRb (P09619 33-1106, species assumed): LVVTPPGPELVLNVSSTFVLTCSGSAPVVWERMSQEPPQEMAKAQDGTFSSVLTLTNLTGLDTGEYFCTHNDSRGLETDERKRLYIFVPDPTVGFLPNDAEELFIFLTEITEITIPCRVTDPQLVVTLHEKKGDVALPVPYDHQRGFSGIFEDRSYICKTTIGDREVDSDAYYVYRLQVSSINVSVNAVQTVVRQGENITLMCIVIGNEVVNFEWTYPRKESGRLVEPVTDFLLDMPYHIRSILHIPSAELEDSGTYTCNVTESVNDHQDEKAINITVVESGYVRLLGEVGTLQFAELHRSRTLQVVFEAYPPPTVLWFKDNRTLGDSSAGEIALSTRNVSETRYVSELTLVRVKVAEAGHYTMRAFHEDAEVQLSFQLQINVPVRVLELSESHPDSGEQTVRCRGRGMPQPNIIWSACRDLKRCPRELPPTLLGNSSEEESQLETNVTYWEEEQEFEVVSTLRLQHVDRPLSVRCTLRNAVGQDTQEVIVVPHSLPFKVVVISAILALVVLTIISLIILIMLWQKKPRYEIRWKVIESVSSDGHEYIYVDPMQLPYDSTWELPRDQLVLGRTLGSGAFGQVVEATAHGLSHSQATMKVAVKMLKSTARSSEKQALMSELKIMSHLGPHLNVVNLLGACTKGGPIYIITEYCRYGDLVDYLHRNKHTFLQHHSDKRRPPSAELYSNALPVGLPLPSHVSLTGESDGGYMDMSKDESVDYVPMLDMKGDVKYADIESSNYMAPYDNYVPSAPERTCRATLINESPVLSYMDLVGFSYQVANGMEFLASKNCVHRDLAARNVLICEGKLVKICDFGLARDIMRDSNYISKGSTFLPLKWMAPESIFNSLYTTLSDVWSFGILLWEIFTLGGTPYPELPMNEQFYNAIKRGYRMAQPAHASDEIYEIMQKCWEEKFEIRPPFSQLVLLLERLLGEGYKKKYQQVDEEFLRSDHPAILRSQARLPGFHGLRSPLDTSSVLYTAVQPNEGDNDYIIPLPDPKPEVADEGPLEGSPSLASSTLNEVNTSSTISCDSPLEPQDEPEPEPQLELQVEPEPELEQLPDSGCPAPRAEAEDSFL
Chain of ALK3/BMPR1A (P36894 24-532): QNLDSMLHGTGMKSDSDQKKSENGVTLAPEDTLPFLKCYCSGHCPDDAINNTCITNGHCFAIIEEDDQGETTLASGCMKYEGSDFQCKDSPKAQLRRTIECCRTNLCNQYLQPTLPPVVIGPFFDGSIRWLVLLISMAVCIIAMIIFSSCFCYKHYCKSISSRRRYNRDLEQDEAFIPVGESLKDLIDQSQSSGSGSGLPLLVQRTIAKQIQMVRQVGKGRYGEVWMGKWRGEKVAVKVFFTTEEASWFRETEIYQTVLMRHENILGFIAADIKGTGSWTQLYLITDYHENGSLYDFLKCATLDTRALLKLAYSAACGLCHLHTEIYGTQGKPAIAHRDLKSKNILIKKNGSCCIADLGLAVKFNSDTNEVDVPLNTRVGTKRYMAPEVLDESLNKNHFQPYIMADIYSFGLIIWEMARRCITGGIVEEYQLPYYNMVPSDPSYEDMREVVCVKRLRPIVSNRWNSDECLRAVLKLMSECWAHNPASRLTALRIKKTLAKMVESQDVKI
Chain of KDR (P35968 20-1356, species assumed): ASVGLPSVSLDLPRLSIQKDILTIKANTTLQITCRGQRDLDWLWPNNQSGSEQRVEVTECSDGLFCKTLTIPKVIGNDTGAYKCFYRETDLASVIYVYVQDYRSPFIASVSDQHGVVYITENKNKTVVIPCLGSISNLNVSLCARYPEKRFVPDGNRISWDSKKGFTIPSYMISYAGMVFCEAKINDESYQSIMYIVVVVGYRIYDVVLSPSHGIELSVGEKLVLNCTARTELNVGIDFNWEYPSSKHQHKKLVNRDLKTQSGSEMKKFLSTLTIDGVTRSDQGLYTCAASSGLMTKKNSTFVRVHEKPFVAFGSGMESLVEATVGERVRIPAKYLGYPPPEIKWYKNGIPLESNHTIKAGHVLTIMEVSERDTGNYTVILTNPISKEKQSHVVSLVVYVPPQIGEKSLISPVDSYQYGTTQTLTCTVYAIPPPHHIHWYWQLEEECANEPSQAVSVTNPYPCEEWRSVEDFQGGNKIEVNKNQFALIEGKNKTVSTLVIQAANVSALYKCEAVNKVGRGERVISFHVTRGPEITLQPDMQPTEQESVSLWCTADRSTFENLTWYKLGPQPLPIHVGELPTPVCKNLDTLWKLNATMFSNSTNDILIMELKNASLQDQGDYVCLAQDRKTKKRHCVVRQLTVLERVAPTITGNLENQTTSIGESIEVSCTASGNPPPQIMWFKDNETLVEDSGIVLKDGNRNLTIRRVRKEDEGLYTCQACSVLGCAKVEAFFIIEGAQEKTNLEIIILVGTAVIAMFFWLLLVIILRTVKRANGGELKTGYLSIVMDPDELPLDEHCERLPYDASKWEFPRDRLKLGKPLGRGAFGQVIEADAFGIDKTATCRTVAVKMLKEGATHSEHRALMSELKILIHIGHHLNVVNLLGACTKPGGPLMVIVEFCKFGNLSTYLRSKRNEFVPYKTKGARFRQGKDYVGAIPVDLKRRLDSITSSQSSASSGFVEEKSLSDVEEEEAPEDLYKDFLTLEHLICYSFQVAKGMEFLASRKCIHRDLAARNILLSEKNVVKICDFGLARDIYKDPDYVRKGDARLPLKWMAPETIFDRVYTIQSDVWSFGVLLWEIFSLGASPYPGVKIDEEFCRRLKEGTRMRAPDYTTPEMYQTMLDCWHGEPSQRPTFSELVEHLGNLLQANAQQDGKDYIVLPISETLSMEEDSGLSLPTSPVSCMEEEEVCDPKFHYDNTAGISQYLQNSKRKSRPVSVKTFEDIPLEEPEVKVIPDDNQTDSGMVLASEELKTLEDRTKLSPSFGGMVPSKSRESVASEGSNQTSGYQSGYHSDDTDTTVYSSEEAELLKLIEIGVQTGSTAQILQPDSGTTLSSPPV

Consider `Cc1cc(-c2cnc3cc(-c4ccc(C5COCCN5)cc4)ccn23)c2cc(F)cc(F)c2n1` (centres unmarked) [Compound 22], for which the pIC50 on KDR is 4.41; on BMPR2, less than 4.30; on TGFbR2 it was 6.41; on ALK4 it was 6.95; on PDGFRb, 5.28; at ALK1/ACVRL1 it was 7.14. For the same compound, the pIC50 on ALK6 was 6.89; at ALK3/BMPR1A it was greater than 8.29; at ALK5, 6.63. Also, the CLint scaled in [1] (setting [4]) stood at 17.5 mL/min/kg.
Regarding `Cc1cc(-c2cnc3cc(-c4ccc(C5CNCCN5)cc4)ccn23)c2cc(F)ccc2n1` (centres unmarked) [Compound 18], the pIC50 is 4.50 at KDR; less than 4.00 on BMPR2; 5.57 on TGFbR2; 6.41 at ALK4; 5.19 at PDGFRb; 7.46 in series [3] (C2C12 cells). Moreover, the pIC50 is 7.79 at ALK1/ACVRL1, 6.64 at ALK6, greater than 8.29 on ALK3/BMPR1A and 6.34 on ALK5. Also, the “Protein Binding (% Free) Mouse” value in “Protein binding, mouse” worked out at 5.48 % Free. Moreover, in series [2], the “Intrinsic Clearance Mouse” value is less than 49.5 mL/min/kg. Moreover, the “Intrinsic Clearance Mouse (CL-Hep)” value in series [2] (CL-Hep, value in parentheses) is on record as “(<32.94) mL/kg/min”. Also, in “Protein binding, human”, the “Protein Binding (% Free) Human” value was found to be 7.33 % Free. For the same compound, in series [1] (CL-Hep, value in parentheses), the “Intrinsic Clearance Human (CL-Hep)” value was “(12.4) mL/kg/min”.
`Cc1cc(-c2cnc3cc(-c4ccc(C5CNCCN5)cc4)ccn23)c2cc(F)ccc2n1` (centres unmarked) [Compound 17]: the pIC50 at KDR was 4.43; at BMPR2, less than 4.00; at TGFbR2, 6.30; at ALK4, 6.41; on PDGFRb, 5.16; in series [3] (Mus musculus, C2C12, C2C12 cells) it was 7.53. Moreover, the pIC50 on ALK1/ACVRL1 is 7.05; on ALK6, 6.73; on ALK3/BMPR1A, greater than 8.29; at ALK5, 6.14. Also, in the series “Protein binding, mouse”, the “Protein Binding (% Free) Mouse” value is recorded as 8.52 % Free. The CLint scaled in series [2] (CL-Hep, value in parentheses, read-out: Intrinsic Clearance Mouse (CL-Hep)) is less than 32.9 mL/min/kg; in series [2] (read-out: Intrinsic Clearance Mouse), less than 49.5 mL/min/kg; in series [1] (setting [4]) it was 14 mL/min/kg; in series [1] (read-out: Intrinsic Clearance Human) it was 46.7 mL/min/kg. Besides, the “Protein Binding (% Free) Human” value in the series “Protein binding, human” was 10.3 % Free.

Values taken from patent US10745400B2, “Inhibition of BMP signaling, compounds, compositions and uses thereof” (Vanderbilt University, priority 2018, dated 2020).
